Values of other authors in patent publication US6503482B1, “Non-chlorofluorocarbon aerosol formulations” (Schering Corporation, priority 1993, dated 2003).
Read-outs that look alike come from different tables or passages of the source.

Conditions: absolute pressure

- vapor pressure (same value in psia): 84.7 psia
- vapor pressure (stated too high for use in metered dose inhalators): 5.84×10^5 newton/meter^2 absolute
Compound: FCC(F)(F)F [HFC 134a, 1,1,1,2 tetrafluoroethane]
